Earlier results, collected in patent US8133904B2, “Cannabinoid receptor antagonists/inverse agonists useful for treating obesity” (Jenrin Discovery, Inc., priority 2007, dated 2012).

Conditions: patients with type 2 diabetes not treated with other anti-diabetic medications; after six months of treatment; baseline value 7.9

SMILES: Cc1c(C(=O)NN2CCCCC2)nn(-c2ccc(Cl)cc2Cl)c1-c1ccc(Cl)cc1 [rimonabant]
- HbA1c levels lowered: 0.8%
